Experimental data reported in patent publication US7935853B2, “Micronized composition of a 2,4-disubstituted phenol derivative” (priority 2008, dated 2011).
Several values for one entry are separate records, joined by “and”; a condition that tells them apart may be missing. Identical values can stand only once.

Legend:
[1] = test system: pulmonary fibrosis induced by bleomycin in C57/BL6 mice; assay: Model of pulmonary fibrosis induced by bleomycin in mice (bronchoalveolar lavage fluid); assay type: in vivo, mouse
Procedure: In the study, female, young and healthy C57/BL6 mice were used, of approximately 9-10 weeks of age at the start of the experimental phase. The choice of C57/BL6 mice was because this is the most commonly used mouse strain in the pulmonary fibrosis model.
Three experimental groups were used in the study:
Group A: (positive control): Bleomycin+Vehicle (PBS) n=10
Group B: Bleomycin+2,4,6-triiodophenol micronized 10 mg/kg q.d. (every 12 hours) n=10
Group C: No treatment (healthy animals) n=1
Where n is the number of animals in each experimental group.
The test item was administered as a suspension in 0.25% methylcellulose (the vehicle). The positive control group received the vehicle.
Both the test item and the vehicle were administered orally in a volume of 5 ml/kg twice per day (q.d.) every 12 hours.
On day 0 pulmonary fibrosis was induced by intratracheal instillation of 0.075 units of bleomycin in 50 μl of sterile saline solution into the lungs of each animal. Immediately afterwards 150 μl of air were introduced intratracheally into each mouse to aid in the pulmonary distribution of the bleomycin.
On day 7 after bleomycin administration, treatment with the test item or vehicle was commenced by oral administration. Treatment was carried out twice per day (every 12 hours) and was continued for 15 days.
On day 21 after bleomycin administration a bronchoalveolar lavage was carried out on all animals. To this effect, mice were anaesthetized with sodium pentobarbital and the trachea of each animal was cannulated. Afterwards 1 ml of PBS at 37° C. was instilled into each lung and re-aspirated back with the use of a syringe. This process was repeated 5 times, each time collecting the aspirated liquid in a vial and combining the liquid obtained from the 5 lavages. The recovered volume of bronchoalveolar lavage was adjusted for all animals to 5 mls.
Once the bronchoalveolar lavage fluid had been obtained, a sample was taken in order to determine cellular viability by trypan blue exclusion. Additionally, a sample of lavage fluid was kept frozen (−20° C.) for subsequent determination of CCL5 and TGF-β concentration by ELISA.
The remaining bronchoalveolar lavage fluid was spun in a cytocentrifuge and stained (Diff-Quick) in order to carry out a differential cell count.
All animals were weighed on arrival at the laboratory and each day during the treatment phase of the experimental period until the end of the study.
For each animal cell viability in bronchoalveolar lavage fluid was determined by Trypan Blue exclusion, and a differential cell count was done by staining cytocentrifuged samples with Diff-Quick stain (this was done on a population of approximately 200 cells per sample). Additionally, the concentration of CCL5 and TGF-β were also determined in bronchoalveolar lavage fluid samples by the use of commercially available ELISA kits specific for mice chemokines from R&D Systems.
The statistical significance of the results was evaluated by use of the statistical package Graphpad Instat 3.
All comparisons were evaluated by the use of Student's t-test (two-way, unpaired data). Values of P≦0.05 were taken as significant.

5-lipoxygenase = biological target: T1, 5-lipoxygenase (Rattus norvegicus, UniProt P12527); assay: Inhibitory activity over 5-lipoxygenase ex-vivo in rat whole blood (LTB4 by EIA); settings: for LTB4 (ng/ml), group mean / LTB4 (ng/ml), individual samples: blood 1 h after last dose, calcium ionophore 30 μM; for LTB4 (ng/ml), individual samples / LTB4 % inhib., individual samples: individual rats
T1 construct: leukotriene B4 formation (LTB4) by 5-lipoxygenase ex-vivo in rat whole blood stimulated with calcium ionophore; from tissue
T1 sequence (P12527 1-673): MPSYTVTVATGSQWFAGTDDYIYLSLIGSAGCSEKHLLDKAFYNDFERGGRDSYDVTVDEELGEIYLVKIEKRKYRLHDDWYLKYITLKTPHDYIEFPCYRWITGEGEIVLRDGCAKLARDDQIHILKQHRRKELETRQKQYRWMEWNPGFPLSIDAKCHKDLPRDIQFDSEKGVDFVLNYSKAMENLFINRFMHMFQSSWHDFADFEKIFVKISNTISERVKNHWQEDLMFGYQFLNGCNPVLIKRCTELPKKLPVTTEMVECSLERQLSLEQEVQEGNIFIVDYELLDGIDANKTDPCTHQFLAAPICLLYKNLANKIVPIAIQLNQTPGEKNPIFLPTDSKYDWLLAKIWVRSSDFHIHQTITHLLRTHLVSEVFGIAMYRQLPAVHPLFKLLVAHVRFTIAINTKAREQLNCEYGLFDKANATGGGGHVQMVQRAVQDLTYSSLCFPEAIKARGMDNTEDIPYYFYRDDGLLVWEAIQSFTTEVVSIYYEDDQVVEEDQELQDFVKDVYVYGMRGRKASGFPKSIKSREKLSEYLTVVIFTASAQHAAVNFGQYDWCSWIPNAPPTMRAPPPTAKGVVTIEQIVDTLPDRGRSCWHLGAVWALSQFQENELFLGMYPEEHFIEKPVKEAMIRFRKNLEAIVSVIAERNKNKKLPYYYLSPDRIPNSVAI
Procedure: In the example shown 3 groups of animals (rats) were used, with 6 rats in each group. The groups were;
1 group 1: control (vehicle)
2 group 2: treated with micronized test substance (10 mg/Kg)
3 group 3: treated with non-micronized test substance (10 mg/Kg)
The distribution of animals to each group was done in a randomized manner at the start of the study.
The test and reference substances were administered orally as a suspension in 0.25% carboximethylcellulose in a dosing volume of 4 ml/kg via an oral cannula.
Test substance administration was carried out once every 24 hours (09 h 00 min) for 5 consecutive days. On the 5th day a blood sample was obtained from each animal (1 mL) 1 hour after administration of the test and reference substances. Blood samples were obtained from the posterior (abdominal) vena cava in sterile syringes containing sodium citrate (4%) as an anticoagulant. Each blood sample was divided into two 0.5 ml aliquots (duplicates). A 1 hour time lapse after test substance administration was used before obtaining the blood samples as it was determined in preliminary studies that this is when there is a greater inhibition of leukotriene synthesis by the test substance.
Immediately after collection of the blood samples, the duplicated aliquots were incubated at 37° C. for 10 min. After this time, the aliquots were stimulated with calcium ionophore (30 μM, final concentration) for 30 min at 37° C. Once the incubation period was over the aliquots were centrifuged at 12.000 g for 2 minutes. The resulting plasma was separated and stored at −20° C. for its posterior analysis. In these samples the concentration of leukotriene B4 was determined by enzyme immunoassay (kit EIA; Amersham).

[2] = 10 mg/kg oral twice per day, starting 7 days after bleomycin
[3] = group mean, day 21, 10 mg/kg oral twice per day from day 7
[4] = group mean, day 21 after bleomycin, 10 mg/kg oral twice per day from day 7
[5] = individual mice, day 21, 10 mg/kg oral twice per day from day 7, listed as Group B, 10 mg/kg
[6] = 10 mg/Kg oral once daily 5 days, 10 mg/kg
[7] = 10 mg/Kg oral once daily 5 days, vs control, 10 mg/kg

Row | SMILES | effect on bleomycin-induced increase of CCL5 and TGFβ in bronchoalveolar lavage fluid (in words) [1, 2] | effect on bleomycin-induced lymphocyte and neutrophil percentages in bronchoalveolar lavage fluid (in words) [1, 2] | CCL5 concentration in BALF, mean [1, 3] [pg/mL] | TGFβ concentration in BALF, mean [1, 3] [pg/mL] | Lymphocytes, differential cell count in bronchoalveolar lavage fluid (%) [1, 4] [%] | Macrophages, differential cell count in bronchoalveolar lavage fluid (%) [1, 4] [%] | Neutrophils, differential cell count in bronchoalveolar lavage fluid (%) [1, 4] [%] | CCL5 concentration in BALF, individual animals [1, 5] | TGFβ concentration in BALF, individual animals [1, 5] | degree of LTB4 inhibition compared with the other form (5-lipoxygenase; 10 mg/kg, 5 days oral) | inhibition of leukotriene B4 formation by 5-lipoxygenase ex-vivo (in words) (5-lipoxygenase; 10 mg/kg, 5 days oral, P<0.05 ANOVA+Dunnett's test) | LTB4 (ng/ml), group mean (5-lipoxygenase; group mean, 6 rats, 10 mg/Kg oral once daily 5 days, 10 mg/kg) [ng/mL] | LTB4 (ng/ml), individual samples (5-lipoxygenase; [6]) | LTB4 % inhib., individual samples (5-lipoxygenase; [7]) | inhibition at 10 mg/kg (5-lipoxygenase; rat, po, group mean, 6 rats, 10 mg/Kg oral once daily 5 days, vs control, read-out: LTB4 % inhib., group mean) [%] | LTB4 (ng/ml), group mean (5-lipoxygenase; group mean, 6 rats, 10 mg/Kg oral once daily 5 days, listed as S. Ref., 10 mg/kg) [ng/mL] | LTB4 % inhib., group mean (5-lipoxygenase; group mean, 6 rats, 10 mg/Kg oral once daily 5 days, vs control, listed as S. Ref., 10 mg/kg) [%]
1 | Oc1c(I)cc(I)cc1I [Micronized, 2,4,6-triiodophenol] | very significant inhibition | reduction of the bleomycin-induced increase in lymphocytes and neutrophil percentages | 6.952 | 40.731 | 34.35 | 60.33 | 5.32 | 1.887 pg/mL and 3.041 pg/mL and 6.426 pg/mL and 24.658 pg/mL and 3.426 pg/mL and 2.272 pg/mL | 6.319 pg/mL and 8.389 pg/mL and 26.335 pg/mL and 38.069 pg/mL and 121.586 pg/mL and 9.770 pg/mL and 74.651 pg/mL | superior to that obtained with the non-micronized product | inhibits, in a statistically significant manner | 5.492 | 6.549 ng/mL and 5.032 ng/mL and 4.583 ng/mL and 6.118 ng/mL and 4.602 ng/mL and 6.067 ng/mL | 20.176% and 38.665% and 44.140% and 25.423% and 43.902% and 26.054% | 33.1 |  | 
2 | Oc1c(I)cc(I)cc1I [Non-Micronized, 2,4,6-triiodophenol] |  |  |  |  |  |  |  |  |  |  |  |  | 6.862 ng/ml and 4.355 ng/ml (2×) and 4.905 ng/ml and 8.818 ng/ml and 9.682 ng/ml | 16.356% and 46.917% and 40.210% and −7.480% and −18.013% |  | 6.496 | 20.818
